Reference: patent US20240190851A1, “FURAN FUSED RING-SUBSTITUTED GLUTARIMIDE COMPOUND” (MEDSHINE DISCOVERY INC., priority 2021, published 2024)
pIC50: −log10 of the molar value. Where a name gives a salt, the structure may show the parent alone.

Legend:
[1] = system: human prostate cancer LNCaP xenograft tumor; test: In vivo pharmacodynamic study, LNCaP subcutaneous xenograft tumor CB-17 SCID model; parameters: species or system CB-17 SCID mice; conditions: Enzalutamide 20 mg/kg p.o. QD
Procedure: Human prostate cancer LNCaP cells (ECACC-89110211) were cultured in vitro in a monolayer under the culture conditions of RPMI-1640 medium with 10% fetal bovine serum, […], and 100 μg/mL streptomycin, and cultured in a 37° C., 5% CO2 incubator.
Routine digestion with trypsin-EDTA was performed twice a week for passaging. When the cell saturation density was 80% to 90% and the number of cells reached the required level, the cells were collected, counted, and inoculated.
CB-17 SCID mice, 6 to 8 weeks old, male, weighing 18 to 22 g.
0.2 mL (1×10^7) of LNCaP cells (with matrix gel, volume ratio of 1:1) were subcutaneously inoculated on the right back of each mouse. The mice were subjected to surgical castration when the average tumor volume reached approximately 80 mm^3, and grouping and administration were initiated when the average tumor volume reached 166 mm^3.
Tumor diameters were measured twice a week with a vernier caliper. The formula for calculating tumor volume was: V=0.5a×b^2, wherein a and b represented the long and short diameters of the tumor, respectively.
The antitumor efficacy of compounds was evaluated by TGI (%). TGI (%) reflected the tumor growth inhibition rate. TGI (0%)=[(1−(average tumor volume at the end of administration in a treatment group−average tumor volume at the beginning of administration in this treatment group))/(average tumor volume at the end of treatment in the vehicle control group−average tumor volume at the beginning of treatment in the vehicle control group)]×100%.

androgen receptor AR = target: T1, androgen receptor AR (Homo sapiens, UniProt P10275, T878A); test: AR degradation in LNCaP cells by ICW method; type: cell-based; conditions: 24 hours
T1 construct: degradation effect of compounds on androgen receptor AR in LNCaP cells; endogenous in cells; host or cells: LNCaP
T1 sequence (P10275 1-920 T878A): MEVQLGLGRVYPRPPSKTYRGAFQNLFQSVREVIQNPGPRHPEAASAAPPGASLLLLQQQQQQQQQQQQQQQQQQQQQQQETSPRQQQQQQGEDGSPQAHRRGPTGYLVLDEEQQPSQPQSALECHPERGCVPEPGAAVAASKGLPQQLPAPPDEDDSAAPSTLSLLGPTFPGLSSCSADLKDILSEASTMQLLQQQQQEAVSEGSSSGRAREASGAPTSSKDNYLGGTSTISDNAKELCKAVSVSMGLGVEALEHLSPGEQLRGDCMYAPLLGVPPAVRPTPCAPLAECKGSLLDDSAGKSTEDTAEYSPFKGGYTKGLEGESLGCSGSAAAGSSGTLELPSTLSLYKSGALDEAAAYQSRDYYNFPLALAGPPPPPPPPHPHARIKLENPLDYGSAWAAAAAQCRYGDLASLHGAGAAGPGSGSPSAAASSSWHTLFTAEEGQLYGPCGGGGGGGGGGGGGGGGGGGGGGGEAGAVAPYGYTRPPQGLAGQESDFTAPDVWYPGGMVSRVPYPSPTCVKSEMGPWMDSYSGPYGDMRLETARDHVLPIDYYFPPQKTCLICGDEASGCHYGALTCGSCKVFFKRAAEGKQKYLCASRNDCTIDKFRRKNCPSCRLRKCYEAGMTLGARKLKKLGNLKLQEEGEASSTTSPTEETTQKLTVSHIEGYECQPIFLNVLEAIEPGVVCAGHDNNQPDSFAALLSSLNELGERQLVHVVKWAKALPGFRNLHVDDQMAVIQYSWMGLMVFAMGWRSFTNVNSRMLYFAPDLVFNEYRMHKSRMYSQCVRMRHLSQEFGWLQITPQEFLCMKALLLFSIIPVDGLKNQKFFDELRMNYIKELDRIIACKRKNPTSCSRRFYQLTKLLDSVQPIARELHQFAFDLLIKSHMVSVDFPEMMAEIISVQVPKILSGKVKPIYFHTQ
Procedure: Experimental purpose: To test the degradation effect of compounds on androgen receptor AR in LNCaP cells by ICW method.
Day 1 • 1. The cell culture medium, 0.025% trypsin, and phosphate buffered saline were preheated in a 37° C. water bath. • 2. Cells digested by trypsin were centrifuged at 1000 rpm for 5 minutes. The supernatant was discarded, and then the cells were resuspended in fresh culture medium. • 3. The cells were inoculated in a COL-Coated CellCarrier-384 plate at a density of 4 k/[…]/well. • 4. The 384 cell plate inoculated with cells was placed in an ultra-clean bench for 10 minutes. • 5. The cell plate was cultured overnight in a CO2 cell incubator.
Day 2 • 1. The compound at a concentration of 10 mM was diluted to 3 mM (3 μL+7 μL of dimethyl sulfoxide) before serial dilution. • 2. The compound was serially diluted 3-fold (4 μL+8 μL) in an Echo plate using Bravo. • 3. ZPE and HPE control wells were setup, and the ZPE control wells were dimethyl sulfoxide. • 4. The Echo plate was centrifuged at 1000 rpm for 1 minute, and then the diluted compound was transferred from the Echo plate to an intermediate plate using Echo with 200 nL/well. • 5. To the intermediate plate was added the cell culture medium using Multidrop combi with […]. • 6. The intermediate plate was shaken on a horizontal shaker for 1 minute to mix the compound well with the culture medium. • 7. The compound was transferred from the intermediate dilution plate to the cell plate using Bravo with 4 μL/well. • 8. The cell plate was shaken on the horizontal shaker for 1 minute, and centrifuged at 800 rpm for 30 seconds. • 9. The cell plate was returned to the CO2 incubator, and cultured for another 24 hours.
Day 3 • 1. 4% paraformaldehyde was removed from the refrigerator and brought to room temperature. • 2. The cell plate was removed from the incubator. • 3. To the cell plate was directly added 4% paraformaldehyde with 40 μL/well. • 4. The plate was incubated at room temperature for 20 minutes. • 5. The culture medium was manually shaken off from the cell plate, inverted in a centrifuge, and centrifuged at 800 rpm for 7 seconds to fully remove the residual culture medium. • 6. To the cell plate was added 4% paraformaldehyde with 25 μL/well. • 7. The plate was incubated at room temperature for 30 minutes. • 8. The paraformaldehyde solution was manually shaken off from the cell plate, inverted in the centrifuge, and centrifuged at 800 rpm for 7 seconds. • 9. 0.1% Trition was added with 25 μL/well. • 10. The plate was incubated at room temperature for 10 minutes. • 11. The 0.1% Trition solution was manually shaken off from the cell plate, inverted in the centrifuge, and centrifuged at 800 rpm for 7 seconds. • 12. Intercept® (PBS) blocking buffer was added with 25 μL/well. • 13. The plate was incubated at room temperature for 1 hour. • 14. The Intercept® (PBS) blocking buffer solution was manually shaken off from the cell plate, inverted in the centrifuge, and centrifuged at 800 rpm for 7 seconds. • 15. Primary antibody solution was added with 20 μL/well. The cell plate was placed in the centrifuge, and centrifuged at 800 rpm for 7 seconds. • 16. The cell plate was sealed, and then incubated overnight at 4° C.
Day 4 • 1. The primary antibody solution was manually shaken off from the cell plate, inverted in the centrifuge, and centrifuged at 800 rpm for 7 seconds. • 2. The plate was washed three times with 110 μL of PBS. • 3. The cell plate was inverted in the centrifuge, and centrifuged at 800 rpm for 7 seconds. • 4. Secondary antibody and DAPI solution was added with 20 μL/well. The cell plate was placed in the centrifuge, and centrifuged at 800 rpm for 7 seconds. • 5. The plate was incubated at room temperature for 1 hour. • 6. The secondary antibody and DAPI solution was manually shaken off from the cell plate, inverted in the centrifuge, and centrifuged at 800 rpm for 7 seconds. • 7. […]

[2] = system: human prostate cancer LNCaP cells; test: Antiproliferative effect in LNCaP cells (CellTiter-Glo, 6 days); type: cell-based; conditions: 144 h
Procedure: In this experiment, the inhibitory effect of the test compound on cell proliferation in human prostate cancer LNCaP cells was detected.
The tumor cell lines were cultured in a 37° C., 5% CO2 incubator under the above culture conditions. Regular passage, and cells in logarithmic growth phase were taken for plating.
2. Cell Plating • (1) Cells were stained with trypan blue and viable cells were counted; • (2) the cell concentration was adjusted to an appropriate concentration;
• (3) 90 μL of cell suspension per well was added to the culture plate as shown in the table above, and cell-free culture medium was added to the blank control well; • (4) the culture plate was cultured overnight in a 37° C., 5% CO2 incubator with 100% relative humidity.
Preparation of stock solution storage plate with 400 times the initial concentration of the compound: The compound was serially diluted with DMSO from the highest concentration to the lowest concentration. The solution was prepared as needed each time.
Preparation of Working Solution with 10 Times the Initial Concentration of Compounds and Cell Treatment with Compounds • (1) To a V-bottom 96-well plate was added 78 μL of cell culture medium, and 2 μL of compound was pipetted from a stock solution storage plate with 400 times the initial concentration of the compound and added to the cell culture medium of the 96-well plate. To vehicle control and blank control was added 2 μL of DMSO. After the compound or DMSO was added, blowing with a pipette and mixing well were carried out. • (2) Administration: 10 μL of a working solution with 10 times the initial concentration of the compound was added to the cell culture plate. To vehicle control and blank control was added 10 μL of DMSO-cell culture medium mixture. • (3) The 96-well plate was returned to the incubator and cultured for 6 days.
The following steps were performed according to the instructions of Promega CellTiter-Glo luminescent cell viability assay kit (Promega-G7573). • (1) CellTiter-Glo buffer was melted and brought to room temperature; • (2) CellTiter-Glo substrate was brought to room temperature; • (3) CellTiter-Glo working solution was prepared by adding 100 mL of CellTiter-Glo buffer to a vial of CellTiter-Glo substrate to dissolve the substrate; • (4) the mixture was slowly vortexed and shaken to be fully dissolved; • (5) the cell culture plate was taken out and left for 30 minutes to equilibrate to room temperature; • (6) 50 μL of CellTiter-Glo working solution was added per well (equal to half the volume of cell culture medium per well). The cell plate was wrapped in aluminum foil to be protected from light; • (7) the culture plate was shaken on an orbital shaker for 2 minutes to induce cell lysis; (8) the culture plate was left at room temperature for 10 minutes to stabilize the luminescent signal; • (9) the luminescent signal was detected on a 2104 EnVision plate reader.
The inhibition rate (IR) of the test compound was calculated using the following formula: IR (%)=(RLU vehicle control−RLU compound)/(RLU vehicle control−RLU blank control)×100%. The inhibition rates of compounds at different concentrations were calculated in Excel, and then GraphPad Prism software was used to plot inhibition curves and calculate relevant parameters, including minimum inhibition rate, maximum inhibition rate, and ICSO.

CNC(=O)c1ccc(N2C(=S)N(c3ccc(C#N)c(C(F)(F)F)c3)C(=O)C2(C)C)cc1F [Enzalutamide, reference compound]
Tumor volume (Day 0) ([1]; Day 0, start of administration): 166 ± 18 mm^3 | TGI (Day 21) ([1]; Day 21): 101.9% | Tumor volume (Day 21) ([1]; Day 21): 157 ± 37 mm^3

N#Cc1ccc(O[C@H]2CC[C@H](NC(=O)c3ccc(N4CCC(CN5CCN(c6ccc7c(ccc8occ(C9CCC(=O)NC9=O)c87)c6)CC5)CC4)nn3)CC2)cc1Cl (some centres unmarked) [Hydrochloride of WX014]
DC50 (androgen receptor AR): 22.4 nM | Dmax (androgen receptor AR): 76.2%

CC1(C)C(=O)N(c2ccc(C#N)c(C(F)(F)F)c2)C(=S)N1c1ccc(OCCN2CCN(CC(=O)Nc3ccc4occ(C5CCC(=O)NC5=O)c4c3)CC2)c(F)c1 (centres unmarked) [WX001]
pIC50 [2]: 6.48

CC1(C)C(=O)N(c2ccc(C#N)c(C(F)(F)F)c2)C(=S)N1c1ccc(OCCN2CCN(CC(=O)Nc3ccc4c(ccc5occ(C6CCC(=O)NC6=O)c54)c3)CC2)c(F)c1 (centres unmarked) [WX003]
pIC50 [2]: 6.64

CC1(C)C(=O)N(c2ccc(C#N)c(C(F)(F)F)c2)C(=S)N1c1ccc(OCCN2CCN(CCCc3ccc4c(C5CCC(=O)NC5=O)coc4c3)CC2)c(F)c1 (centres unmarked) [WX004]
pIC50 [2]: 7.60

CC1(C)C(=O)N(c2ccc(C#N)c(C(F)(F)F)c2)C(=S)N1c1ccc(OCCN2CCN(C3(C(=O)Nc4ccc5occ(C6CCC(=O)NC6=O)c5c4)CC3)CC2)c(F)c1 (centres unmarked) [WX005]
pIC50 [2]: 6.72

CC1(C)C(=O)N(c2ccc(C#N)c(C(F)(F)F)c2)C(=S)N1c1ccc(OCCN2CCN(CC(=O)Nc3cccc4c3ccc3occ(C5CCC(=O)NC5=O)c34)CC2)c(F)c1 (centres unmarked) [WX009]
DC50 (androgen receptor AR): 10.1 nM | Dmax (androgen receptor AR): 64.7%
